Data from the supplement of paper PMC10307832.

Columns and labels:
Assay in all cases: relative viability (nuclei count vs DMSO), 5 days (fraction); higher = more cells survive
[1] = compound: COc1cc2nccc(Oc3ccc(NC(=O)C4(C(=O)Nc5ccc(F)cc5)CC4)cc3)c2cc1OC [Cabozantinib] + Cc1cc(Nc2cc(N3CCN(C)CC3)nc(Sc3ccc(NC(=O)C4CC4)cc3)n2)n[nH]1 [Tozasertib] (partner 0.1 µM)
In short: (§1)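 The day after seeding in 1536-well plates, lung cancer cell lines were treated by pin tool with a single drug, or with a fixed anchor-drug dose together with five library-drug doses (not always all listed) in √10 steps. After 5 days, a combined fix-and-stain solution (final 0.05% Triton X-100, 1% formaldehyde, 1 ug/ml Hoechst) was added. Nuclei counted on 4× images gave relative viability as treated counts over vehicle counts, reported as the median of duplicate plates.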

[2] = compound: COc1cc2nccc(Oc3ccc(NC(=O)C4(C(=O)Nc5ccc(F)cc5)CC4)cc3)c2cc1OC [Cabozantinib] + CCNC(=O)c1noc(-c2cc(C(C)C)c(O)cc2O)c1-c1ccc(CN2CCOCC2)cc1 [Luminespib] (partner 0.01 µM)
In short: as §1

Zosuquidar + AZD7762 = compound: O[C@@H](COc1cccc2ncccc12)CN1CCN([C@@H]2c3ccccc3[C@@H]3[C@H](c4ccccc42)C3(F)F)CC1 [Zosuquidar] + NC(=O)Nc1cc(-c2cccc(F)c2)sc1C(=O)N[C@H]1CCCNC1 [AZD7762] (partner 0.2 µM)
In short: as §1

Kobe2602 + Tozasertib = compound: C1=CC(=CC=C1NC(=S)NNC2=C(C=C(C=C2[N+](=O)[O-])C(F)(F)F)[N+](=O)[O-])F [Kobe2602] + Cc1cc(Nc2cc(N3CCN(C)CC3)nc(Sc3ccc(NC(=O)C4CC4)cc3)n2)n[nH]1 [Tozasertib] (partner 0.1 µM)
In short: as §1

Cell Line	relative viability ([1]; first compound 0.02 µM)	relative viability ([1]; first compound 0.06325 µM)	relative viability ([1]; first compound 0.2 µM)	relative viability ([1]; first compound 0.6325 µM)	relative viability ([1]; first compound 2 µM)	relative viability ([2]; first compound 0.02 µM)	relative viability ([2]; first compound 0.06325 µM)	relative viability ([2]; first compound 0.2 µM)	relative viability ([2]; first compound 0.6325 µM)	relative viability ([2]; first compound 2 µM)	relative viability (Zosuquidar + AZD7762; first compound 0.01 µM)	relative viability (Zosuquidar + AZD7762; first compound 0.03162 µM)	relative viability (Zosuquidar + AZD7762; first compound 0.1 µM)	relative viability (Zosuquidar + AZD7762; first compound 0.3162 µM)	relative viability (Zosuquidar + AZD7762; first compound 1 µM)	relative viability (Kobe2602 + Tozasertib; first compound 0.2 µM)	relative viability (Kobe2602 + Tozasertib; first compound 0.6325 µM)	relative viability (Kobe2602 + Tozasertib; first compound 2 µM)	relative viability (Kobe2602 + Tozasertib; first compound 6.325 µM)	relative viability (Kobe2602 + Tozasertib; first compound 20 µM)
NCI-H838	0.314	0.296	0.288	0.259	0.219	0.369	0.342	0.3	0.259	0.34	0.939	0.997	0.898	0.948	0.904	0.242	0.249	0.242	0.255	0.254
CAL-12T	0.366	0.446	0.369	0.261	0.247	0.832	0.574	0.37	0.581	1.37	0.586	0.626	0.469	0.632	0.738	0.292	0.282	0.248	0.21	0.244
RERF-LC-KJ	0.588	0.51	0.505	0.438	0.412	1.32	1.31	1.19	1.19	1.23	1.02	0.882	0.895	1.05	0.811	0.492	0.528	0.473	0.285	0.271
NCI-H2347	0.572	0.526	0.575	–	0.392	0.411	0.661	0.778	–	0.515	0.701	0.811	0.564	0.808	0.764	0.708	0.647	0.512	0.495	0.55
PC-14	0.656	0.668	–	0.547	0.526	0.198	0.139	–	0.237	0.179	0.3	0.372	0.314	0.363	0.344	0.606	0.562	0.596	0.602	0.559
LCLC-97TM1	0.288	0.27	0.252	0.217	0.282	0.784	0.817	0.875	0.805	0.638	0.214	0.345	–	0.25	0.2	0.219	0.292	0.175	0.186	0.196
HCC-44	–	1.27	0.979	1	0.758	–	1.15	1.08	1	1.02	1.02	1.11	1.02	1.01	1	0.906	0.838	0.92	0.861	0.687
A-427	0.316	0.201	0.209	0.213	0.185	1.23	1.15	1.03	0.912	0.857	0.759	0.798	0.693	0.764	0.705	0.233	0.242	0.198	0.229	0.218
NCI-H23	–	0.47	0.387	0.325	0.292	–	0.218	0.199	0.229	0.205	0.319	–	0.2	0.331	0.224	0.464	0.342	0.308	0.829	0.236
SW 900	0.551	0.481	0.814	0.464	0.299	0.17	0.19	0.2	0.177	0.166	0.597	0.782	–	0.668	0.636	0.561	0.621	0.458	0.379	0.512
ABC-1	0.194	0.195	0.265	0.194	0.218	0.458	0.494	0.83	1.11	0.758	0.69	0.864	0.665	0.717	0.733	0.201	0.181	–	0.216	0.215
NCI-H1395	0.796	0.779	0.794	0.756	0.719	0.744	0.978	0.873	0.619	0.547	0.398	0.373	–	0.409	0.429	0.72	0.793	0.878	0.741	0.776
NCI-H2085	0.87	0.852	0.818	0.655	0.527	0.472	0.498	0.464	0.467	0.432	0.983	1.04	–	1.03	0.99	0.736	0.772	0.775	0.567	0.751
NCI-H1944	0.275	0.274	0.238	0.257	0.238	0.739	0.818	0.754	0.719	0.762	0.496	0.565	0.479	0.62	0.511	0.264	0.267	0.262	0.245	0.279
NCI-H2170	0.738	0.8	0.733	0.748	0.734	0.729	0.952	0.587	0.857	0.849	0.866	0.916	0.776	0.898	0.858	0.65	0.729	0.721	0.78	0.694
NCI-H322M	0.488	0.511	0.425	0.439	0.436	0.922	1.14	0.817	0.969	0.941	0.586	0.507	0.495	0.56	0.49	0.518	0.534	0.493	0.538	0.533
